# Measurements reported in article PMC3992512 (British Journal of Cancer, 2014).
# Values joined by “and” are separate entries in the source; they are usually repeats but may differ in a detail not shown here. Identical values can stand only once. “Also recorded” adds a separate entry of the source. Like-named read-outs stand apart in the source and are kept apart here.
# Legend:
# [1] = Plasma pharmacokinetics and tissue distribution in Capan-1 tumour-bearing mice; assay type: in vivo
# PARP [2] = biological target: T1, PARP (Homo sapiens, UniProt P09874); test: PARP activity in permeabilised or intact Capan-1 cells with carboxy metabolite; assay type: cell-based
# [3] = pre-clinical studies; ref Calabrese et al, 2004; cited from earlier work
# SW620 cells = test: [14C]rucaparib uptake and retention in SW620 cells; assay type: in vitro ADME, human; settings: for effect of transport inhibitor on rucaparib uptake: ouabain 30 or 100 μM, cytochalasin B 0.1 or 1 μM, dipyridamole 10 or 100 μM, BCH 1 or 2 mM
# MX-1 xenografts [4] = settings: ref Shen et al, 2013, cited from earlier work
# [5] = [14C]rucaparib uptake and retention in SW620 cells; assay type: in vitro ADME, human; settings: human, SW620 cells
# MX-1 xenografts [6] = test: Efficacy study in mice bearing MX-1 xenografts; assay type: in vivo; settings: MX-1 tumour-bearing mice
# Capan-1 xenografts [7] = test: Efficacy study in mice bearing Capan-1 xenografts; assay type: in vivo
# [8] = biological target: T2, Poly(ADP-ribose) polymerase-1 (Mus musculus, UniProt P11103); test: in vivo; assay type: in vivo, mice
# [9] = tested on: Poly(ADP-ribose) polymerase-1; test: in vivo; assay type: in vivo, mice; settings: for PARP activity in tumours, % of control: 7 days
# Capan-1 xenografts [10] = settings: ref Drew et al, 2011; cited from earlier work
# [11] = biological target: Poly(ADP-ribose) polymerase-1 (Homo sapiens, UniProt P09874); test: PARP activity in cancer cell lines after a 30-min pulse of rucaparib; assay type: cell-based
# PARP [12] = biological target: T1, PARP; settings: patients, after five daily doses; ref Plummer et al, 2008; cited from earlier work
# [13] = biological target: T2, Poly(ADP-ribose) polymerase-1; assay type: in vivo, mice; settings: 24 h after single dose 150 mg kg−1 p.o. or 50 mg kg−1 i.p.
# [14] = tested on: Poly(ADP-ribose) polymerase-1; assay type: in vivo, mice
# [15] = SW620 cells, 400 nM [14C]rucaparib
# [16] = 10 mg kg−1 i.p. daily × five weekly × six
# [17] = Capan-1 and MX-1 cells, 30-min pulse with 400 nM
# T2 sequence (P11103 2-1013): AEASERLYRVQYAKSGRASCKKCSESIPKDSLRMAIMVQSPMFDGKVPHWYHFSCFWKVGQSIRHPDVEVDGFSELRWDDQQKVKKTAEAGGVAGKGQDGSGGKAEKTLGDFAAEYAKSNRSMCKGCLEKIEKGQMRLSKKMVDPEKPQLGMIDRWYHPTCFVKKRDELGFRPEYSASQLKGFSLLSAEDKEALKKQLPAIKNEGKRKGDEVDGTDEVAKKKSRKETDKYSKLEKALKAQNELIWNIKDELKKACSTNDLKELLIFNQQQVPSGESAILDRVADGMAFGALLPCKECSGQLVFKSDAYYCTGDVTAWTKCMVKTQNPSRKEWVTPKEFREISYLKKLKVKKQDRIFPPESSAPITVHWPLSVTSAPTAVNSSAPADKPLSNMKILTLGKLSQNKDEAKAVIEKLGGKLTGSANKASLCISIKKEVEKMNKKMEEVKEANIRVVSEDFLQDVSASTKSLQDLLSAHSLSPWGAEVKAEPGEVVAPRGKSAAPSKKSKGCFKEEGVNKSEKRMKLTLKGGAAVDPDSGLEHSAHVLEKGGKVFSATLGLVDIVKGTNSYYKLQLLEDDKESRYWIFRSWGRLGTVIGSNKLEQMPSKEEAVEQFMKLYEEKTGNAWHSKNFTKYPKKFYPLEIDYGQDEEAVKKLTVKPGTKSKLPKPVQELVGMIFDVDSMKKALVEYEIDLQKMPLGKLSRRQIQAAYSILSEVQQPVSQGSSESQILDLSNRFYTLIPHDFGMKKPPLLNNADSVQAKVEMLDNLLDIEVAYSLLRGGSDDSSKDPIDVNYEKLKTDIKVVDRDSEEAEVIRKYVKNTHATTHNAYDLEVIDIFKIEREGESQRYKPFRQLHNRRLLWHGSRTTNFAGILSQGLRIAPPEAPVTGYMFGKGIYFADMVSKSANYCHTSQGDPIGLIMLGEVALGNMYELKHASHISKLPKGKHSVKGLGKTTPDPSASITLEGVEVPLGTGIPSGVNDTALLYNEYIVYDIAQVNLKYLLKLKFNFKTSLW
# Chain of Poly(ADP-ribose) polymerase-1 (Homo sapiens, UniProt P09874) (P09874 whole entry): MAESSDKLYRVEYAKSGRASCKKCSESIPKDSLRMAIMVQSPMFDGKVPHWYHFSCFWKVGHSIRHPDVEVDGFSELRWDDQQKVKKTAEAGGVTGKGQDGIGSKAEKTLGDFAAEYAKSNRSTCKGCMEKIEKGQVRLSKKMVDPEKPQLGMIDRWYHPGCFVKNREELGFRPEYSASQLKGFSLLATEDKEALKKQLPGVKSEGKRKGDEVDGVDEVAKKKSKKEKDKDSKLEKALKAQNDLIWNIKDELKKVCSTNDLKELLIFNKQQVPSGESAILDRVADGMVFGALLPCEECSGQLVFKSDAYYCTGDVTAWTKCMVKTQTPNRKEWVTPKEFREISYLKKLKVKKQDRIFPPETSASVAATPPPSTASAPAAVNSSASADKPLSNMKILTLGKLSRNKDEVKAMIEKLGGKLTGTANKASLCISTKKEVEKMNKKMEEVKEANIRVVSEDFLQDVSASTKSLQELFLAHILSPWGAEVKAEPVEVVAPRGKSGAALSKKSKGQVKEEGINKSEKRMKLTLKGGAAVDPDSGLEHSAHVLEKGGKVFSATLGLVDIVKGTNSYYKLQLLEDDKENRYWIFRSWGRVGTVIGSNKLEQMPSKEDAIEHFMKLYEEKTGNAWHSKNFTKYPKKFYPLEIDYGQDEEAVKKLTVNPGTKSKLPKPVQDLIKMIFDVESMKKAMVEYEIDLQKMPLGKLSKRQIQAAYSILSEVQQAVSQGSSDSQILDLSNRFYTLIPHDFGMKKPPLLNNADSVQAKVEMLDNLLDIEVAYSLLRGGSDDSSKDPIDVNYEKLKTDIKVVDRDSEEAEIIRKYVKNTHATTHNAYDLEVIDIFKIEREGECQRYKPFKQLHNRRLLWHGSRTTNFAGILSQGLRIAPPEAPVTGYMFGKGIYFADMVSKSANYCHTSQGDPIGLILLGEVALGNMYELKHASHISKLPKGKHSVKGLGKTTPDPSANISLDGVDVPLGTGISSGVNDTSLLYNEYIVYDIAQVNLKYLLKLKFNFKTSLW
# T1 sequence (P09874 whole entry): as above
compound,measurement,setting,value
"O=C(O)c1ccc(-c2[nH]c3cc(F)cc4c3c2CCNC4=O)cc1 [4-(8-fluoro-6-oxo-3,4,5,6-tetrahydro-1H-azepino[5,4,3-cd]indol-2-yl)benzoic acid]",metabolite concentration relative to parent drug in plasma,[1]; after single dose of rucaparib,higher concentrations than the parent drug in the plasma
same,metabolite concentration relative to parent drug in tumour,[1]; after single dose of rucaparib,lower in the tumour
same,PARP inhibition after pre-incubation of intact cells,PARP [2],did not result in PARP inhibition
CN(C)Cc1ccc(-c2nc3cccc4c3n2CCNC4=O)cc1 [AG14361],tumour distribution and retention,[3],distributed well to the tumour and was retained in the tumour after clearance from the plasma
NC1(C(=O)O)CC2CCC1C2 (stereo not shown) [BCH],effect of transport inhibitor on rucaparib uptake,SW620 cells; [15],"neither the nucleoside transport inhibitor, dipyridamole, nor the amino-acid transport inhibitor, BCH, inhibited accumulation"
Cn1ncnc1[C@H]1c2n[nH]c(=O)c3cc(F)cc(c23)N[C@@H]1c1ccc(F)cc1 [BMN 673],efficacy against MX-1 xenografts,MX-1 xenografts [4]; once or twice daily administration,regressions of MX-1 xenografts
C[C@@H]1O[C@@H](O[C@H]2C[C@@H](O)[C@]3(CO)[C@H]4[C@H](O)C[C@]5(C)[C@@H](C6=CC(=O)OC6)CC[C@]5(O)[C@@H]4CC[C@]3(O)C2)[C@H](O)[C@H](O)[C@H]1O [Ouabain],effect of transport inhibitor on rucaparib uptake,SW620 cells; [15],only a very modest effect
C=C1[C@@H](C)[C@H]2[C@H](Cc3ccccc3)NC(=O)[C@]23OC(=O)/C=C/[C@H](O)CCC[C@@H](C)C/C=C/[C@H]3[C@@H]1O [cytochalasin B],effect of transport inhibitor on rucaparib uptake,SW620 cells; [15],no effect on uptake
OCCN(CCO)c1nc(N2CCCCC2)c2nc(N(CCO)CCO)nc(N3CCCCC3)c2n1 [dipyridamole],effect of transport inhibitor on rucaparib uptake,SW620 cells; [15],"neither the nucleoside transport inhibitor, dipyridamole, nor the amino-acid transport inhibitor, BCH, inhibited accumulation"
O=C(c1cc(Cc2n[nH]c(=O)c3ccccc23)ccc1F)N1CCN(C(=O)C2CC2)CC1 [olaparib],efficacy against MX-1 xenografts,MX-1 xenografts [4]; 100 mg kg−1 daily for 28 days,completely ineffective
CNCc1ccc(-c2[nH]c3cc(F)cc4c3c2CCNC4=O)cc1 [rucaparib],half-life,[5],20 min
same,rucaparib lost by efflux in the first 5–10 min,SW620 cells; SW620 cells after 30-min pulse with 400 nM,up to 50%
same,intracellular concentration,"SW620 cells; SW620 cells exposed to 400 nM [14C]rucaparib, steady state",> 10 µM
same,time to steady-state intracellular level,SW620 cells; [15],≤ 30 min
same,Vmax of rucaparib uptake,"SW620 cells; SW620 cells, 30 min exposure, mean and s.d. of three independent experiments",469±22 pmol per 10^6 cells per 10 min
same,uptake with sodium buffer replaced by potassium buffer,"SW620 cells; SW620 cells, transport buffer",reduced uptake slightly
same,uptake with sodium replaced by choline,"SW620 cells; SW620 cells, transport buffer",no effect
same,weight loss at nadir,MX-1 xenografts [6],≤ 4%
same,partial regressions,Capan-1 xenografts [7]; [16],two persistent partial regressions
same,time to quadruple in volume (RTV4),Capan-1 xenografts [7]; [16],not reached during the 50-day trial
same,Complete regressions,"Capan-1 xenografts [7]; 10 mg kg−1 i.p., d × 5 w × 6",1/10
same,Mice remaining at day 40,"Capan-1 xenografts [7]; 10 mg kg−1 i.p., d × 5 w × 6",6
same,Complete regressions,"Capan-1 xenografts [7]; 10 mg kg−1 i.p., d × 5 w × 6, listed as Rucaparib",one complete tumour regression
same,Complete regressions,"Capan-1 xenografts [7]; 50 mg kg−1 p.o., d × 5 w × 6",0/10
same,Mice remaining at day 40,"Capan-1 xenografts [7]; 50 mg kg−1 p.o., d × 5 w × 6",2
same,effect on tumour growth,Capan-1 xenografts [7]; 150 mg kg−1 p.o. daily × five weekly × six,equivalent effect on tumour growth to 10 mg kg^−1 i.p.
same,antitumour effect of once weekly schedule,"Capan-1 xenografts [7]; 150 mg kg−1 p.o. once a week for 6 weeks, compared with other schedules",as effective as; also recorded: greatest antitumour effect
same,Complete regressions,"Capan-1 xenografts [7]; 150 mg kg−1 p.o., 1 × w × 6",three complete regressions and 3/10
same,Mice remaining at day 40,"Capan-1 xenografts [7]; 150 mg kg−1 p.o., 1 × w × 6",7
same,Complete regressions,"Capan-1 xenografts [7]; 150 mg kg−1 p.o., 3 × w × 6",1/10
same,Mice remaining at day 40,"Capan-1 xenografts [7]; 150 mg kg−1 p.o., 3 × w × 6",5
same,Complete regressions,"Capan-1 xenografts [7]; 150 mg kg−1 p.o., d × 5 w × 6",1/10
same,Mice remaining at day 40,"Capan-1 xenografts [7]; 150 mg kg−1 p.o., d × 5 w × 6",5
same,Complete regressions,"Capan-1 xenografts [7]; 150 mg kg−1 p.o., dx5 every 3w",1/10
same,Mice remaining at day 40,"Capan-1 xenografts [7]; 150 mg kg−1 p.o., dx5 every 3w",5
same,weight loss,"Capan-1 xenografts [7]; Capan-1 tumour-bearing mice, any of the schedules",no significant weight loss
same,effect on tumour growth,Capan-1 xenografts [7]; other dosing schedules incl. 150 mg kg−1 p.o. daily for five days every 3 weeks,only marginal effect on tumour growth
same,"PARP activity in PBMCs, % of control",[8]; 24 h after single dose 10 mg kg−1 i.p.,> 35%
same,inhibition at 10 mg/kg,"[8]; CAPAN-1, mouse, ip, read-out: initial PARP inhibition in brain",~50%
same,reduction in brain PARP activity,"[8]; oral dosage, 4 h",> 60%
same,"brain PARP activity after recovery, % of baseline","[8]; oral dosage, after 4 h up to 7 days",70–80%
same,PARP activity in PBMCs up to 6 h post-administration,[8]; single dose 10 mg kg−1 i.p.,profound suppression
same,PARP inhibition in Capan-1 tumours,[9]; 7 days following single dose 10 mg kg−1 i.p.,70%
same,PARP inhibition in Capan-1 tumours,[9]; 7 days following single dose 150 mg kg−1 p.o.,90%
same,"PARP activity in tumours, % of control",[9]; single dose 50 mg kg−1 p.o.,~10%
same,"PARP activity in tumours, % of control",[9]; single dose 150 mg kg−1 p.o.,~10%
same,"PARP activity in tumours, % of baseline","[9]; after 48 h, 10 mg kg−1 i.p.",~30%
same,"PARP activity in tumours, % of baseline","[9]; between 30 min and 24 h, all doses and routes (10 mg kg−1 i.p.; 50, 100, 150 mg kg−1 p.o.)",< 20%
same,efficacy of daily for 5 days every week for 6 weeks vs once a day for 10 days,Capan-1 xenografts [10],more effective
same,dose linearity,[1]; mice,apparent dose linearity
same,rucaparib in tumour at 3 days,[1]; oral rucaparib,still detectable in most mice
same,time at which parent drug detectable in plasma,"[1]; single dose 10 mg kg−1 i.p., all three mice per group",30 min
same,time up to which parent drug detectable in plasma,"[1]; single dose 50–150 mg kg−1 p.o., all three mice per group",up to 4 h
same,PARP activity 1 week after drug removal,[11]; [17],still below baseline
same,persistence of PARP inhibition after pulse,[11]; [17],72 h
same,remaining activity at 0.4 µM,"[11]; SW-620, read-out: PARP activity, % of control",35 ± 12%
same,inhibition at 0.4 µM,"[11]; read-out: PARP inhibition, human cancer cell lines (SW620, Capan-1, MX-1), for at least 72 h after 30-min pulse of 400 nM",≥ 50%
same,PARP activity below baseline 1 week after initial exposure,"[11]; where measured, 30-min pulse",≥ 30%
same,PARP activity in peripheral blood mononuclear cells,PARP [12],still suppressed 3 days after the final of five daily doses
same,PARP inhibition in livers,[13],not in the livers; also recorded: recovered completely within 24 h
same,PARP inhibition in MX-1 tumours,[14]; 24 h after single dose 50 mg kg−1 i.p.,> 55%
same,PARP inhibition in MX-1 tumours,[14]; 24 h after single dose 150 mg kg−1 p.o.,> 80%
same,PARP inhibition in MX-1 tumours,[14]; 3 days after 150 mg kg−1,87–92%
same,PARP inhibition in MX-1 tumours,[14]; 7 days after 150 mg kg−1,44–74%
